# Experimental data from patent EP4585599A1, “NITROGEN-CONTAINING FUSED RING COMPOUND, INTERMEDIATE THEREOF, PREPARATION METHOD THEREFOR AND USE THEREOF” (Hangzhou Synrx Therapeutics Biomedical Technology Co., Ltd., priority 2022, dated 2024).
# “And” between values parts separate entries of the source, which are not always exact repeats. Identical values can stand only once. Like-named read-outs stand apart in the source and are kept apart here.
# Legend:
# [1] = biological target: T1, helicase domain of the Pol θ protein (Homo sapiens, UniProt O75417); assay: Biochemical Activity Assay (ADP Glo Assay) of Pol θ inhibitor, ATPase activity
# T1 construct: The helicase domain of the Pol θ protein was purified from insect protein expression system; made in house; host or cells: insect protein expression system
# T1 sequence (O75417 102-554 limits assumed): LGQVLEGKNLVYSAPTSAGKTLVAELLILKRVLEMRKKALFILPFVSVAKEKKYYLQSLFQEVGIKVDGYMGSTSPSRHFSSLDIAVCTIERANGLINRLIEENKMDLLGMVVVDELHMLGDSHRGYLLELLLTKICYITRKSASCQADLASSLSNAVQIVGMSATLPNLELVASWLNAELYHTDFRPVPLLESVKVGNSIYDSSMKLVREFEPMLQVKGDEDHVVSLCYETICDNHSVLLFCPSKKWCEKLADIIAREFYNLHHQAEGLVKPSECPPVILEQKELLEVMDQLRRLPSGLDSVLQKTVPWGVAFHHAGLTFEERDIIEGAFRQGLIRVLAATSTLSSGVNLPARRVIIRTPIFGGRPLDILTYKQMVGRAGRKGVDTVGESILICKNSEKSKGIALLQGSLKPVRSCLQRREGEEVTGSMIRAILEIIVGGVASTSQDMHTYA
# Solubility assay = settings: phosphate buffer, pH 7.4, aqueous buffer, kinetic from dmso stock
# Experimental: 1) Prepare 0.1 M Na2PO4 buffer (pH 7.4): 11 g of Na2HPO4 (FW: 141.96) and 3.5 g of NaH2PO4_2H2O (FW: 156.03) were added to 1L of Mili-Q water, with pH adjusted to 7.4 using phosphoric acid or sodium hydroxide. 2) 10 µL of the compound to be tested (concentration: 10 mM in DMSO) was added to 990 µL of Na2PO4 buffer (final DMSO concentration: 1%) prepared in Step 1). 3) The sample tube was shaken at room temperature for 2 hours (1000 rpm/min). 4) Prepare the calibration curve: a) Prepare 300 µM spiking solution (SS): 6 µL (10 mM in DMSO) of the stock solution of the compound to be tested was added to 194 µL of MeOH/ACN (4:1); and b) Draw the standard curve.
# 5) The samples were centrifuged (10 min, 12,000 rpm) to precipitate insoluble particles. The supernatant was filtered with a 0.22 µm filter membrane, and then transferred to a new centrifuge tube. 6) The supernatant was diluted 10-fold with 100 mM buffer. The supernatant (10 µL) was added to the buffer (100 mM, 90 µL) and diluted 10-fold. 7) The sample was prepared under LC-MS/MS (API 4000) detection.
# 10 µL of the sample (10-fold dilution) and a standard curve sample were added to 400 µL of (MeOH: ACN=1:1) solution, and detected on the instrument, and the solubility value was calculated according to the standard curve.
# cells = settings: Homo sapiens, DLD-1, 240 h
# [2] = Mouse PK assay after oral administration; settings: for MRT / half-life / bioavailability: male, ICR, mouse, po; for MRT / half-life / Area under curve (0-t; hr * ng/mL) / Peak concentration / bioavailability: plasma; for Time to peak / Area under curve (0-t; hr * ng/mL) / Peak concentration: mice, oral
# Experimental: The objective of this experiment was to study the pharmacokinetics of the test compound in ICR mice (male, 18-22 g, 4-6 weeks old, Beijing Vital River Laboratory Animal Technology Co., Ltd.) after oral administration. The specific experimental procedures were as follows: • 1) The compound was dissolved in 5% DMSO + 40% PEG + 20% (10% TPGS) in water + 35% water at a concentration of 0.5 mg/mL, and then administered orally (5 mL/Kg); and • 2) Blood samples were collected, with 0.03 mL collected at 0.25 h, 0.5 h, 1 h, 2 h, 4 h, 8 h, and 24 h, and EDTA-K2 was added. […] The blood was centrifuged for 5 min at 4000 g in a centrifuge at 4°C to collect plasma. Plasma samples were aliquoted into clean polyethylene microcentrifuge tubes and then stored in a freezer at -75 ± 15°C before analysis; and • 3) Samples were analyzed, and the concentration of the compound in each plasma sample was analyzed by LC-MS/MS. For plasma measurements, pharmacokinetic parameters were calculated using WinNonlin (PhoenixTM, version 8.3) or other similar software.
# in vitro = settings: mouse, microsomes, pH 7.4
# Experimental: (§1) a) Phosphate buffer solution (PBS): 100 mM, pH=7.4±0.1.
# (§2) 73.21 g of dipotassium phosphate trihydrate K2HPO4·3H2O (MW=228.22) and 10.78 g of potassium dihydrogen phosphate KH2PO4 (MW=136.09) were dissolved in 4000 mL of pure water, with pH adjusted to 7.4 ± 0.1 using phosphoric acid or potassium hydroxide.
# (§3) b) Microsome working solution: 1.0 mg/mL.
# (§4) The purchased mouse liver microsomes (IPHASE, Cat. No.: 0121E1.01, Lot. No.: 22F001) were of 20 mg/mL (10 mg, 0.5 mL), with 225 µL added to 4275 µL of PBS solution to prepare 1.0 mg/mL microsome working solution.
# (§5) (Note whether the precipitation occurred) • III, 200 µL of the 40 mM NADPH stock solution, 2.0 mL of the 12 mM magnesium chloride stock solution, and 1.80 mL of the PBS solution were used to prepare the working solution of the NADPH regeneration system, containing the 2 mM NADPH solution and the 6 mM magnesium chloride mixture.
# (§6) d) Stop solution: containing 200 ng/mL tolbutamide acetonitrile solution. • I, 6.006 mg of tolbutamide (MV=270.35, 99.9%) solids were weighed, and 30 mL of acetonitrile was added to prepare the 200 µg/mL of tolbutamide stock solution. • II, 500 mL of acetonitrile was added to 500 µL of the 200 µg/mL tolbutamide stock solution to obtain the tolbutamide acetonitrile solution with a concentration of 200 ng/mL.
# (§7) e) Test sample/reference working solution: 100 µM test sample/reference working solution • I, 1 mL of 1.0 mg/mL testosterone (MV=288.42) solution was purchased, and 155.8 µL of ACN was added to prepare a testosterone stock solution with a concentration of 3 mM. • II, 1450 µL of acetonitrile was added to 50 µL of the 3 mM testosterone stock solution to prepare the 100 µM testosterone working solution. • III, 6.98 mg of propafenone hydrochloride was weighed, and 1.8433 mL of acetonitrile was added to dissolve the propafenone hydrochloride; and 5.67 mg of diclofenac sodium was weighed, and 1.783 mL of acetonitrile was added to dissolve the diclofenac sodium. 10 mM propafenone stock solution and 10 mM diclofenac stock solution were prepared respectively. • IV, 10 µL of the propafenone stock solution and 10 mL of the diclofenac stock solution were each added with 990 µL of acetonitrile to prepare 100 µM propafenone working solution and 100 µM diclofenac working solutions.
# (§8) • a) 8 incubation plates were prepared, named T0, T5, T15, T30, T45, T60, Blank60 and NCF60, respectively. • b) 100 µL of microsome working solution was added to each of T0, T5, T15, T30, T45, T60, Blank60 and NCF60; 2 µL of the test (reference) working solution was added to each of T0, T5, T15, T30, T45, T60 and NCF60; and 2 µL of acetonitrile was added to Blank60. • c) T5, T15, T30, T45, T60, and Blank60 were pre-incubated in a 37°C water bath for 10 minutes. • d) 600 µL of the stop solution was added to the sample T0 to stop the reaction; and 98 µL of phosphate buffer solution (PBS) was added to NCF60, and NCF60 samples without the NADPH regeneration system were taken as negative control. • e) 98 µL of the working solution of the NADPH regeneration system was supplemented to the sample T0 that is stopped in the previous step; and after pre-incubation, 98 µL of the working solution of the NADPH regeneration system was added to each of T5, T15, T30, T45, T60, and Blank60 to initiate the reaction.
# [3] = read-out: Cell viability assay IC50
# [4] = mouse, microsomes
# Experimental: as §1, §2, §3, §4, §5, §6, §7, §8
# [5] = ADP-Glo assay, ATPase activity of Pol θ helicase domain, ssDNA substrate, read-out: Biochemical assay IC50
# [6] = ADP-Glo, ssDNA substrate, 60 min at room temperature, read-out: Biochemical assay IC50
# [7] = read-out: Cell viability assay IC50 (nM), CTG assay, CellTiter Glo, read on Day 10, cell line not given
# [8] = read-out: Cell viability assay IC50 (nM), CTG on Day 10, cell line not given (method: DLD1 and DLD1^-/- cells)
# [9] = read-out: Cell viability assay IC50 (nM)
# [10] = Biochemical assay IC50 (nM), ADP-Glo assay, ATPase activity of Pol θ helicase domain, ssDNA substrate
# [11] = Biochemical assay IC50 (nM), ADP-Glo, ssDNA substrate, 60 min at room temperature
# [12] = read-out: Biochemical assay IC50
smiles,measurement,setting,value
"COc1ccc(Cl)cc1-c1cc(C)ncc1C(=O)Nc1nc2ncc(-c3ccc(C#N)cc3)nc2s1 [Comparative Example 1, reference compound]",IC50,[1]; [5],6.91 nM
same,solubility at 2 h,Solubility assay,2.35 µM
COc1cnc(Cl)cc1-c1cc(C)ncc1C(=O)Nc1nc2cnc(C3=CCC(O)CC3)cc2s1 (stereo not drawn) [Example 11],IC50,[1]; [5],3.11 nM
same,IC50,[1]; [6],< 50 nM
same,IC50,cells; [7],11.2 nM
same,IC50,cells; [8],< 100 nM
same,MRT,[2]; 25 mg/kg,3.15 h
same,half-life,[2]; 25 mg/kg,2.19 h
same,Time to peak,[2]; administration dose 25 mg/kg,0.83 h
same,Area under curve (0-t; hr * ng/mL),[2]; administration dose 25 mg/kg,26.324 µg·h/mL
same,Peak concentration,[2]; administration dose 25 mg/kg,7407 ng/mL
same,half-life at 1 µM,in vitro,3.75 h
same,solubility at 2 h,Solubility assay,76.4 µM
COc1cnc(Cl)cc1-c1cc(C)ncc1C(=O)Nc1nc2ccc([C@H]3CC[C@@H](O)CC3)nc2s1 [Example 28],IC50,[1]; [5],12.1 nM
same,IC50,[1]; [6],< 50 nM
same,IC50,cells; [9],100 to 500 nM
same,IC50,[3],178 nM
COc1cnc(Cl)cc1-c1cnccc1C(=O)Nc1nc2ccc([C@H]3CC[C@@H](O)CC3)nc2s1 [Example 33],IC50,[1]; [5],24.9 nM
same,IC50,[1]; [6],< 50 nM
same,IC50,cells; [9],100 to 500 nM
same,IC50,[3],171 nM
"COc1cnc(Cl)cc1-c1cc(C)ncc1C(=O)Nc1nc2ccc(N3CCOCC3)cc2s1 [Example 45, 2-chloro-5-methoxy-6-methyl-N-(6-morpholinylbenzothiazol-2-yl)-4, 4'-bipyridin-3-car boxamide]",IC50,[1]; [10],25.4 nM
same,IC50,[1]; [11],< 50 nM
same,IC50,cells; [9],100 to 500 nM
same,IC50,[3],141 nM
COc1cnc(Cl)cc1-c1cc(C)ncc1C(=O)Nc1nc2ccc(N3CCC(O)CC3)nc2s1 [Example 46],IC50,[1]; [5],8.31 nM
same,IC50,[1]; [6],< 50 nM
same,IC50,cells; [9],< 100 nM
same,MRT,[2]; 25 mg/kg,4.13 h
same,bioavailability,[2]; 25 mg/kg,127%
same,half-life,[2]; 25 mg/kg,1.59 h
same,Time to peak,[2]; administration dose 25 mg/kg,2.0 h
same,Area under curve (0-t; hr * ng/mL),[2]; administration dose 25 mg/kg,46.041 µg·h/mL
same,Peak concentration,[2]; administration dose 25 mg/kg,7217 ng/mL
same,half-life at 1 µM,in vitro,7.9 h
same,solubility at 2 h,Solubility assay,61.5 µM
same,IC50,[3],60.7 nM
"COc1cnc(Cl)c(F)c1-c1cc(C)ncc1C(=O)Nc1nc2c(s1)CN(C(=O)C1CCOC1)CC2 (stereo not drawn) [Example 54, 2'-chloro-3'-fluoro-5'-methoxy-6-methyl-N-(5-(tetrahydrofuran-3-carbonyl)-4,5,6,7-tetrahydrothiazol[5,4-c]pyridin-2-yl)-[4,4'-bipyridine]-3-carboxamide]",IC50,[1]; Biochemical assay IC50 (nM),< 50 nM and 40.6 nM
same,IC50,cells; [9],500 to 1000 nM
same,IC50,[3],794 nM
"COc1cnc(Cl)cc1-c1cc2cnc(C)n2cc1C(=O)Nc1nc2ccc(C3=CCC(O)CC3)nc2s1 (stereo not drawn) [Example 55, 7-(2-chloro-5-methoxypyridin-4-yl)-N-(5-(4-hydroxycyclohex-1-en-1-yl)thiazol[5,4-b]pyridin-2-yl)-3-methylimidazol[1,5-a]pyridin-6-carboxamide]",IC50,[1]; Biochemical assay IC50 (nM),< 50 nM and 28.7 nM
same,IC50,cells; [9],100 to 500 nM
same,IC50,[3],112 nM
COc1cnc(Cl)cc1-c1cc(C)ncc1C(=O)Nc1nc2ncc(N3CCC(O)CC3)nc2s1 [Example 70],IC50,[1]; [5],2.73 nM
same,IC50,[1]; [6],< 50 nM
same,IC50,cells; [7],14.2 nM
same,IC50,cells; [8],< 100 nM
same,MRT,[2]; 100 mg/kg,2.2 h
same,half-life,[2]; 100 mg/kg,2.91 h
same,Time to peak,[2]; administration dose 100 mg/kg,0.5 h
same,Area under curve (0-t; hr * ng/mL),[2]; administration dose 100 mg/kg,60.434 µg·h/mL
same,Peak concentration,[2]; administration dose 100 mg/kg,22767 ng/mL
same,half-life at 1 µM,in vitro,8.88 h
same,solubility at 2 h,Solubility assay,70.6 µM
COc1cnc(Cl)cc1-c1cc(C)ncc1C(=O)Nc1nc2cnc(-c3c(C)cnn3C)cc2s1 [Example 87],IC50,[1]; [5],1.91 nM
same,IC50,[1]; [6],< 50 nM
same,IC50,cells; [7],6.81 nM
same,IC50,cells; [8],< 100 nM
same,MRT,[2]; 100 mg/kg,3.45 h
same,half-life,[2]; 100 mg/kg,2.12 h
same,Time to peak,[2]; administration dose 100 mg/kg,0.25 h
same,Area under curve (0-t; hr * ng/mL),[2]; administration dose 100 mg/kg,300.735 µg·h/mL
same,Peak concentration,[2]; administration dose 100 mg/kg,74833 ng/mL
same,half-life at 1 µM,in vitro,14.4 h
same,solubility at 2 h,Solubility assay,79.7 µM
"COc1cnc(Cl)cc1-c1cc(C)ncc1C(=O)Nc1nn2cc(-c3ccccn3)nc2s1 [Example 97, 2'-chloro-5'-methoxy-6-methyl-N-(6-(pyridin-2-vyl)imidazol[2,1-b][1,3,4]thiadiazol-2-yl)-[4,4'-bipyridine]-3-carboxamide]",IC50,[1]; Biochemical assay IC50 (nM),< 50 nM and 26.4 nM
same,IC50,cells; [9],> 1000 nM
same,IC50,[3],1210 nM
[2H]C([2H])([2H])c1cc(-c2cc(Cl)ncc2OC)c(C(=O)Nc2nc3ccc(N4CCC(O)CC4)nc3s2)cn1 [Example 109],IC50,[1]; [10],6.71 nM
same,IC50,[1]; [11],< 50 nM
same,IC50,cells; [9],< 100 nM
same,IC50,[3],147 nM
COc1cnc(Cl)c(F)c1-c1cc(C)ncc1C(=O)Nc1nc2cnc(-c3c(C)nnn3C)cc2s1 [Example 172],IC50,[1]; [5],2.84 nM
same,MRT,[2]; 30 mg/kg,5.91 h
same,bioavailability,[2]; 30 mg/kg,206%
same,half-life,[2]; 30 mg/kg,5.1 h
same,Time to peak,[2]; administration dose 30 mg/kg,0.25 h
same,Area under curve (0-t; hr * ng/mL),[2]; administration dose 30 mg/kg,429.051 µg·h/mL
same,Peak concentration,[2]; administration dose 30 mg/kg,43555 ng/mL
same,"Half-life (T1/2, min)",[4],∞
same,solubility at 2 h,Solubility assay,63.7 µM
"COc1cnc(Cl)cc1-c1cc(C)ncc1C(=O)Nc1nc2cnc(-c3c(C)nnn3C)cc2s1 [Example 175, 2'-chloro-N-(6-(1,4-dimethyl-1H-1,2,3-triazol-5-yl)thiazolo[4,5-c]pyridin-2-yl)-5'-methoxy-6-methyl-[4,4'-bipyridine]-3-carboxamide]",IC50,[1]; [5],1.84 nM
same,IC50,cells; [7],10 nM
same,MRT,[2]; 30 mg/kg,4.58 h
same,bioavailability,[2]; 30 mg/kg,151%
same,half-life,[2]; 30 mg/kg,2.68 h
same,Time to peak,[2]; administration dose 30 mg/kg,1.67 h
same,Area under curve (0-t; hr * ng/mL),[2]; administration dose 30 mg/kg,293.209 µg·h/mL
same,Peak concentration,[2]; administration dose 30 mg/kg,42933 ng/mL
same,half-life at 1 µM,in vitro,10.5 h
same,solubility at 2 h,Solubility assay,4.61 µM
"COc1cnc(C(F)F)cc1-c1cc(C)ncc1C(=O)Nc1nc2cnc(-c3c(C)nnn3C)cc2s1 [Example 180, 2'-(difluoromethyl)-N-(6-(1,4-dimethyl-1H-1,2,3-triazol-5-yl)thiazolo[4,5-c]pyridin-2-yl) -5'-methoxy-6-methyl-[4,4'-bipyridine]-3-carboxamide]",IC50,[1]; [5],1.63 nM
same,IC50,cells; [7],5.62 nM
same,MRT,[2]; 30 mg/kg,2.88 h
same,half-life,[2]; 30 mg/kg,1.75 h
same,Time to peak,[2]; administration dose 30 mg/kg,1.08 h
same,Area under curve (0-t; hr * ng/mL),[2]; administration dose 30 mg/kg,176.788 µg·h/mL
same,Peak concentration,[2]; administration dose 30 mg/kg,44133 ng/mL
same,"Half-life (T1/2, min)",[4],∞
same,solubility at 2 h,Solubility assay,91.1 µM
COc1cnc(C(F)F)cc1-c1cc(C)ncc1C(=O)Nc1nc2cnc(-c3c(C)noc3C)cc2s1 [Example 207],IC50,[1]; [5],3.41 nM
same,IC50,cells; [7],8.57 nM
same,MRT,[2]; 30 mg/kg,5.13 h
same,bioavailability,[2]; 30 mg/kg,311%
same,half-life,[2]; 30 mg/kg,1.97 h
same,Time to peak,[2]; administration dose 30 mg/kg,1.67 h
same,Area under curve (0-t; hr * ng/mL),[2]; administration dose 30 mg/kg,581.387 µg·h/mL
same,Peak concentration,[2]; administration dose 30 mg/kg,52444 ng/mL
same,half-life at 1 µM,in vitro,14.4 h
same,solubility at 2 h,Solubility assay,58.7 µM
COc1cnc(Cl)cc1-c1cc(C)ncc1C(=O)Nc1nc2cnc(-c3c(C)nnn3C)c(F)c2s1 [Example 216],IC50,[1]; [5],3.31 nM
same,IC50,cells; [7],< 1.52 nM
same,MRT,[2]; 30 mg/kg,3.38 h
same,bioavailability,[2]; 30 mg/kg,178%
same,half-life,[2]; 30 mg/kg,2.2 h
same,Time to peak,[2]; administration dose 30 mg/kg,0.75 h
same,Area under curve (0-t; hr * ng/mL),[2]; administration dose 30 mg/kg,385.297 µg·h/mL
same,Peak concentration,[2]; administration dose 30 mg/kg,89917 ng/mL
same,half-life at 1 µM,in vitro,28.9 h
same,solubility at 2 h,Solubility assay,61.8 µM
COc1cnc(Cl)c(F)c1-c1cc(C)ncc1C(=O)Nc1nc2ccccc2s1 [Examples 39],IC50,[1]; [12],< 50 nM and 8.57 nM
same,IC50,cells; [9],100 to 500 nM
same,IC50,[3],108 nM
COc1cnc(Cl)cc1-c1cc(C)ncc1C(=O)Nc1nc2ccc(C3(O)CCC(O)CC3)cc2s1 (stereo not drawn) [Examples 89],IC50,[1]; [12],< 50 nM and 36.7 nM
same,IC50,cells; [9],100 to 500 nM
same,IC50,[3],171 nM
